This test concerns the target human Gal-3 (hGal-3) (Homo sapiens (Human), UniProt P17931). Put plainly: competitive binding assay: binding of biotinylated hGal-3 to microplate-adsorbed asialofetuin (ASF), spectrophotometric. The settings on record: Activity on hGal-3; mean values of several measurements. In short, it runs like this:
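Biotin-hGal-3/hGal-1 300-1000 ng/mL + cpd (DMSO dilutions) on ASF-coated plate, 3 h 4° C; wash; SA-HRP 80 ng/mL 1 h 4° C; wash; ABTS. IC50 = mean of several runs. hGal-1 preferably Cys→Ser (all six) mutant.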
human Gal-3 (hGal-3), sequence (P17931 whole entry): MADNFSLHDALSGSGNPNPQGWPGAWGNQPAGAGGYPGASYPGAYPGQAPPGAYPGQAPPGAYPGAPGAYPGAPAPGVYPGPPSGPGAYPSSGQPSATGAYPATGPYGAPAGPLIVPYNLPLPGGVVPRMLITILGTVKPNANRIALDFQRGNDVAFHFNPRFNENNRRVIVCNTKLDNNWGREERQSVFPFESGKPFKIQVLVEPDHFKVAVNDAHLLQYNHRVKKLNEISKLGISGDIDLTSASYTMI
The IC50 is the concentration that inhibits the measured activity by half. Take `CO[C@@H]1[C@@H](n2cc(-c3ccc(C)c(F)c3F)nn2)[C@@H](O)[C@@H](CO)O[C@H]1C(=O)N(c1cc(Br)cc(C#N)c1)[C@H]1CCC[C@@H]1O` [Example 1.11.5, (2R,3R,4S,5R,6R)-N-(3-bromo-5-cyanophenyl)-4-(4-(2,3-difluoro-4-methylphenyl)-1H-1,2,3-triazol-1-yl)-5-hydroxy-N-((1S,2S)-2-hydroxycyclopentyl)-6-(hydroxymethyl)-3-methoxytetrahydro-2H-pyran-2-carboxamide]: the IC50 was 14.9 nM.
Consider `CO[C@@H]1[C@@H](n2cc(-c3ccc(C)c(F)c3F)nn2)[C@@H](O)[C@@H](CO)O[C@H]1C(=O)N(c1cc(Br)cc(C#N)c1)[C@@H]1CCC[C@H]1O` [Example 1.11.5R, (2R,3R,4S,5R,6R)-N-(3-bromo-5-cyanophenyl)-4-(4-(2,3-difluoro-4-methylphenyl)-1H-1,2,3-triazol-1-yl)-5-hydroxy-N-((1R,2R)-2-hydroxycyclopentyl)-6-(hydroxymethyl)-3-methoxytetrahydro-2H-pyran-2-carboxamide], for which the half-maximal inhibitory concentration (IC50) came out at 73.1 nM.
Under `CO[C@@H]1[C@@H](n2cc(-c3ccc(Br)c(F)c3F)nn2)[C@@H](O)[C@@H](CO)O[C@H]1C(=O)N(c1cc(Cl)cc(Cl)c1)[C@H]1CCC[C@@H]1O` [Example 1.12.2, (2R,3R,4S,5R,6R)-4-(4-(4-bromo-2,3-difluorophenyl)-1H-1,2,3-triazol-1-yl)-N-(3,5-dichlorophenyl)-5-hydroxy-N-((1S,2S)-2-hydroxycyclopentyl)-6-(hydroxymethyl)-3-methoxytetrahydro-2H-pyran-2-carboxamide] stands 23.7 nM; under `CO[C@@H]1[C@@H](n2cc(-c3ccc(Br)c(F)c3F)nn2)[C@@H](O)[C@@H](CO)O[C@H]1C(=O)N(c1cc(Cl)cc(C#N)c1)[C@H]1CCC[C@@H]1O` [Example 1.12.4, (2R,3R,4S,5R,6R)-4-(4-(4-bromo-2,3-difluorophenyl)-1H-1,2,3-triazol-1-yl)-N-(3-chloro-5-cyanophenyl)-5-hydroxy-N-((1S,2S)-2-hydroxycyclopentyl)-6-(hydroxymethyl)-3-methoxytetrahydro-2H-pyran-2-carboxamide], 21.7 nM.
`CO[C@@H]1[C@@H](n2cc(-c3ccc(Br)c(F)c3F)nn2)[C@@H](O)[C@@H](CO)O[C@H]1C(=O)N(c1cc(Cl)cc(C#N)c1)[C@@H]1CCC[C@H]1O` [Example 1.12.4R, (2R,3R,4S,5R,6R)-4-(4-(4-bromo-2,3-difluorophenyl)-1H-1,2,3-triazol-1-yl)-N-(3-chloro-5-cyanophenyl)-5-hydroxy-N-((1R,2R)-2-hydroxycyclopentyl)-6-(hydroxymethyl)-3-methoxytetrahydro-2H-pyran-2-carboxamide] gave a concentration for half-maximal inhibition (IC50) of 90.7 nM.
Under `CO[C@@H]1[C@@H](n2cc(-c3ccc(Br)c(F)c3F)nn2)[C@@H](O)[C@@H](CO)O[C@H]1C(=O)N(c1cc(Br)cc(C#N)c1)[C@H]1CCC[C@@H]1O` [Example 1.12.5, (2R,3R,4S,5R,6R)-4-(4-(4-bromo-2,3-difluorophenyl)-1H-1,2,3-triazol-1-yl)-N-(3-bromo-5-cyanophenyl)-5-hydroxy-N-((1S,2S)-2-hydroxycyclopentyl)-6-(hydroxymethyl)-3-methoxytetrahydro-2H-pyran-2-carboxamide] stands 13.6 nM.
The molecule `CO[C@@H]1[C@@H](n2cc(-c3ccc(Br)c(F)c3F)nn2)[C@@H](O)[C@@H](CO)O[C@H]1C(=O)N(c1cc(F)cc(C#N)c1)[C@H]1CCC[C@@H]1O` [Example 1.12.7, (2R,3R,4S,5R,6R)-4-(4-(4-bromo-2,3-difluorophenyl)-1H-1,2,3-triazol-1-yl)-N-(3-cyano-5-fluorophenyl)-5-hydroxy-N-((1S,2S)-2-hydroxycyclopentyl)-6-(hydroxymethyl)-3-methoxytetrahydro-2H-pyran-2-carboxamide] registered an IC50 of 21.2 nM.
`CO[C@@H]1[C@@H](n2cc(-c3ccc(Br)c(F)c3F)nn2)[C@@H](O)[C@@H](CO)O[C@H]1C(=O)N(c1cc(F)cc(C#N)c1)[C@@H]1CCC[C@H]1O` [Example 1.12.7R, (2R,3R,4S,5R,6R)-4-(4-(4-bromo-2,3-difluorophenyl)-1H-1,2,3-triazol-1-yl)-N-(3-cyano-5-fluorophenyl)-5-hydroxy-N-((1R,2R)-2-hydroxycyclopentyl)-6-(hydroxymethyl)-3-methoxytetrahydro-2H-pyran-2-carboxamide] registered a concentration for half-maximal inhibition (IC50) of 94.6 nM.
Molecule `CO[C@@H]1[C@@H](n2cc(-c3ccc(C)c(F)c3)nn2)[C@@H](O)[C@@H](CO)O[C@H]1C(=O)N(c1cc(Br)cc(C#N)c1)[C@H]1CCC[C@@H]1O` [Example 1.13.5, (2R,3R,4S,5R,6R)—N-(3-bromo-5-cyanophenyl)-4-(4-(3-fluoro-4-methylphenyl)-1H-1,2,3-triazol-1-yl)-5-hydroxy-N-((1S,2S)-2-hydroxycyclopentyl)-6-(hydroxymethyl)-3-methoxytetrahydro-2H-pyran-2-carboxamide] had an IC50 of 17.1 nM.
With `CO[C@@H]1[C@@H](n2cc(-c3ccc(C)c(F)c3)nn2)[C@@H](O)[C@@H](CO)O[C@H]1C(=O)N(c1cc(Br)cc(C#N)c1)[C@@H]1CCC[C@H]1O` [Example 1.13.5R, (2R,3R,4S,5R,6R)-N-(3-bromo-5-cyanophenyl)-4-(4-(3-fluoro-4-methylphenyl)-1H-1,2,3-triazol-1-yl)-5-hydroxy-N-((1R,2R)-2-hydroxycyclopentyl)-6-(hydroxymethyl)-3-methoxytetrahydro-2H-pyran-2-carboxamide], the half-inhibitory concentration (IC50) is 167 nM.
Next, `CO[C@@H]1[C@@H](n2cc(-c3ccc(C)c(F)c3)nn2)[C@@H](O)[C@@H](CO)O[C@H]1C(=O)N(c1cc(C)cc(C#N)c1)[C@H]1CCC[C@@H]1O` [Example 1.13.8, (2R,3R,4S,5R,6R)-N-(3-cyano-5-methylphenyl)-4-(4-(3-fluoro-4-methylphenyl)-1H-1,2,3-triazol-1-yl)-5-hydroxy-N-((1S,2S)-2-hydroxycyclopentyl)-6-(hydroxymethyl)-3-methoxytetrahydro-2H-pyran-2-carboxamide]: 33.2 nM.
Under `CO[C@@H]1[C@@H](n2cc(-c3ccc(C)c(F)c3)nn2)[C@@H](O)[C@@H](CO)O[C@H]1C(=O)N(c1cc(C)cc(C#N)c1)[C@@H]1CCC[C@H]1O` [Example 1.13.8R, (2R,3R,4S,5R,6R)-N-(3-cyano-5-methylphenyl)-4-(4-(3-fluoro-4-methylphenyl)-1H-1,2,3-triazol-1-yl)-5-hydroxy-N-((1R,2R)-2-hydroxycyclopentyl)-6-(hydroxymethyl)-3-methoxytetrahydro-2H-pyran-2-carboxamide] stands 206 nM.
Next, `CO[C@@H]1[C@@H](n2cc(-c3ccc(Cl)c(F)c3F)nn2)[C@@H](O)[C@@H](CO)O[C@H]1C(=O)N(c1cc(Cl)cc(C#N)c1)[C@H]1CCC[C@@H]1O` [Example 1.14.4, (2R,3R,4S,5R,6R)-4-(4-(4-chloro-2,3-difluorophenyl)-1H-1,2,3-triazol-1-yl)-N-(3-chloro-5-cyanophenyl)-5-hydroxy-N-((1S,2S)-2-hydroxycyclopentyl)-6-(hydroxymethyl)-3-methoxytetrahydro-2H-pyran-2-carboxamide]: 12.5 nM; `CO[C@@H]1[C@@H](n2cc(-c3ccc(Cl)c(F)c3F)nn2)[C@@H](O)[C@@H](CO)O[C@H]1C(=O)N(c1cc(Cl)cc(C#N)c1)[C@@H]1CCC[C@H]1O` [Example 1.14.4R, (2R,3R,4S,5R,6R)-4-(4-(4-chloro-2,3-difluorophenyl)-1H-1,2,3-triazol-1-yl)-N-(3-chloro-5-cyanophenyl)-5-hydroxy-N-((1R,2R)-2-hydroxycyclopentyl)-6-(hydroxymethyl)-3-methoxytetrahydro-2H-pyran-2-carboxamide]: 89.8 nM.
Molecule `CO[C@@H]1[C@@H](n2cc(-c3ccc(Cl)c(F)c3F)nn2)[C@@H](O)[C@@H](CO)O[C@H]1C(=O)N(c1cc(Br)cc(C#N)c1)[C@H]1CCC[C@@H]1O` [Example 1.14.5, (2R,3R,4S,5R,6R)-N-(3-bromo-5-cyanophenyl)-4-(4-(4-chloro-2,3-difluorophenyl)-1H-1,2,3-triazol-1-yl)-5-hydroxy-N-((1S,2S)-2-hydroxycyclopentyl)-6-(hydroxymethyl)-3-methoxytetrahydro-2H-pyran-2-carboxamide] came in with a 50% inhibitory concentration (IC50) of 17.4 nM.
For `CO[C@@H]1[C@@H](n2cc(-c3ccc(Cl)c(F)c3F)nn2)[C@@H](O)[C@@H](CO)O[C@H]1C(=O)N(c1cc(Br)cc(C#N)c1)[C@@H]1CCC[C@H]1O` [Example 1.14.5R, (2R,3R,4S,5R,6R)-N-(3-bromo-5-cyanophenyl)-4-(4-(4-chloro-2,3-difluorophenyl)-1H-1,2,3-triazol-1-yl)-5-hydroxy-N-((1R,2R)-2-hydroxycyclopentyl)-6-(hydroxymethyl)-3-methoxytetrahydro-2H-pyran-2-carboxamide], the IC50 came to 25.5 nM.
Under `CO[C@@H]1[C@@H](n2cc(-c3cccc(F)c3)nn2)[C@@H](O)[C@@H](CO)O[C@H]1C(=O)N(c1cc(Cl)cc(C#N)c1)[C@H]1CCC[C@@H]1O` [Example 1.15.4, (2R,3R,4S,5R,6R)-N-(3-chloro-5-cyanophenyl)-4-(4-(3-fluorophenyl)-1H-1,2,3-triazol-1-yl)-5-hydroxy-N-((1S,2S)-2-hydroxycyclopentyl)-6-(hydroxymethyl)-3-methoxytetrahydro-2H-pyran-2-carboxamide] stands 54 nM.
As to `CO[C@@H]1[C@@H](n2cc(-c3cccc(F)c3)nn2)[C@@H](O)[C@@H](CO)O[C@H]1C(=O)N(c1cc(Cl)cc(C#N)c1)[C@@H]1CCC[C@H]1O` [Example 1.15.4R, (2R,3R,4S,5R,6R)-N-(3-chloro-5-cyanophenyl)-4-(4-(3-fluorophenyl)-1H-1,2,3-triazol-1-yl)-5-hydroxy-N-((1R,2R)-2-hydroxycyclopentyl)-6-(hydroxymethyl)-3-methoxytetrahydro-2H-pyran-2-carboxamide], the half-inhibitory concentration (IC50) stood at 838 nM.

Source of the values: patent publication US20230348442A1, “GALECTIN-3 INHIBITING 2-HYDROXYCYCLOALKANE-1-CARBAMOYL DERIVATIVES” (Idorsia Pharmaceuticals Ltd, priority 2020, published 2023).
